From patent publication US9603367B2, “Pesticidal mixtures including spiroheterocyclic pyrrolidine diones” (priority 2012, dated 2017)

Legend:
[1] = system: Myzus persicae (Green Peach Aphid); experiment: Myzus persicae (Green Peach Aphid) feeding/residual contact activity, preventive; sprayed sunflower leaf discs; assay type: in vivo; conditions: Pirimicarb alone
Source text: (§1) A synergistic effect exists whenever the action of an active ingredient combination is greater than the sum of the actions of the individual components.
(§2) The action to be expected E for a given active ingredient combination obeys the so-called COLBY formula and can be calculated as follows (COLBY, S. R. “Calculating synergistic and antagonistic responses of herbicide combination”. Weeds, Vol. 15, pages 20-22; 1967): […]
(§3) ppm=milligrams of active ingredient (=a.i.) per liter of spray mixture
(§4) X=% action by active ingredient A) using p ppm of active ingredient
(§5) Y=% action by active ingredient B) using q ppm of active ingredient.
(§6) According to COLBY, the expected (additive) action of active ingredients A)+B) using p+q ppm of active ingredient is If the action actually observed (O) is greater than the expected action (E), then the action of the combination is super-additive, i.e. there is a synergistic effect. In mathematical terms the synergism factor SF corresponds to O/E. In the agricultural practice an SF of ≧1.2 indicates significant improvement over the purely complementary addition of activities (expected activity), while an SF of ≦0.9 in the practical application routine signals a loss of activity compared to the expected activity.
Myzus persicae (Green Peach Aphid): feeding/residual contact activity, preventive
Sunflower leaf discs were placed on agar in a 24-well microtiter plate and sprayed with the DMSO test solutions of Mixtures (as provided by Table 45). After drying, the leaf discs were infested with an aphid population of mixed ages. After an incubation period of 6 DAT (days after treatment), samples were checked for mortality.

[2] = system: Tetranychus urticae (Two-Spotted Spider Mite); experiment: Tetranychus urticae (Two-Spotted Spider Mite) feeding/contact activity, preventive; sprayed bean leaf discs; assay type: in vivo; conditions: Pirimicarb alone
Source text: as §1, §2, §3, §4, §5, §6
Tetranychus urticae (Two-Spotted Spider Mite): feeding/contact activity, preventive
Bean leaf discs on agar in 24-well microtiter plates were sprayed with the DMSO test solutions of certain Mixtures (as provided by Table 45). After drying, the leaf discs were infested with mite populations of mixed ages. 8 days later, discs were checked for mortality against mobile stages.

## Cc1nc(N(C)C)nc(OC(=O)N(C)C)c1C [Pirimicarb]
[1]; 12.5 PPM AI, 6 DAT
  AVERAGE DEAD IN % AFTER 6 DAYS, Pirimicarb: 0%
[1]; 25 PPM AI, 6 DAT
  AVERAGE DEAD IN % AFTER 6 DAYS, Pirimicarb: 17.5%
[1]; 25 PPM AI, 6 DAT (Table 47)
  AVERAGE DEAD IN % AFTER 6 DAYS, Pirimicarb: 17.5%
[1]; 50 PPM AI, 6 DAT
  AVERAGE DEAD IN % AFTER 6 DAYS, Pirimicarb: 65%
[1]; 100 PPM AI, 6 DAT
  AVERAGE DEAD IN % AFTER 6 DAYS, Pirimicarb: 87.5%
[1]; 200 PPM AI, 6 DAT
  AVERAGE DEAD IN % AFTER 6 DAYS, Pirimicarb: 100%
[2]; 25 PPM AI, mobile stages
  AVERAGE DEAD IN % AFTER 8 DAYS, Pirimicarb: 0%
[2]; 50 PPM AI, mobile stages
  AVERAGE DEAD IN % AFTER 8 DAYS, Pirimicarb: 0%
[2]; 100 PPM AI, mobile stages
  AVERAGE DEAD IN % AFTER 8 DAYS, Pirimicarb: 0%
[2]; 200 PPM AI, mobile stages (Table 48)
  AVERAGE DEAD IN % AFTER 8 DAYS, Pirimicarb: 0%
[2]; 200 PPM AI, mobile stages (Table 49)
  AVERAGE DEAD IN % AFTER 8 DAYS, Pirimicarb: 0%
[2]; 400 PPM AI, mobile stages
  AVERAGE DEAD IN % AFTER 8 DAYS, Pirimicarb: 0%
